Source: paper PMC12281475, “Mediator Kinase Inhibitor Selectivity and Activity in Colorectal Cancer” (ACS Chemical Biology, 2025)

What was measured:
CDK6_CycD1 = biological target: T1, CDK6_CycD1 (Homo sapiens, UniProt Q00534); assay: Radiometric protein kinase assay (33PanQinase), CDK6_CycD1; format: biochemical
T1 construct: purchased Reaction Biology

CDK1_CycE1 = biological target: T2, CDK1_CycE1 (Homo sapiens, UniProt P06493); assay: Radiometric protein kinase assay (33PanQinase), CDK1_CycE1; format: biochemical
T2 construct: purchased Reaction Biology

CDK8_CycC = biological target: T3, CDK8_CycC (Homo sapiens, UniProt P49336); assay: Radiometric protein kinase assay (33PanQinase), CDK8_CycC; format: biochemical
T3 construct: purchased Reaction Biology

CDK12_CycK = biological target: T4, CDK12_CycK (Homo sapiens, UniProt Q9NYV4); assay: Radiometric protein kinase assay (33PanQinase), CDK12_CycK; format: biochemical; conditions: slope of the IC50 fit
T4 construct: purchased Reaction Biology

CDK16_CycY = biological target: T5, CDK16_CycY (Homo sapiens, UniProt Q00536); assay: Radiometric protein kinase assay (33PanQinase), CDK16_CycY; format: biochemical
T5 construct: purchased Reaction Biology
T5 sequence (Q00536 whole entry): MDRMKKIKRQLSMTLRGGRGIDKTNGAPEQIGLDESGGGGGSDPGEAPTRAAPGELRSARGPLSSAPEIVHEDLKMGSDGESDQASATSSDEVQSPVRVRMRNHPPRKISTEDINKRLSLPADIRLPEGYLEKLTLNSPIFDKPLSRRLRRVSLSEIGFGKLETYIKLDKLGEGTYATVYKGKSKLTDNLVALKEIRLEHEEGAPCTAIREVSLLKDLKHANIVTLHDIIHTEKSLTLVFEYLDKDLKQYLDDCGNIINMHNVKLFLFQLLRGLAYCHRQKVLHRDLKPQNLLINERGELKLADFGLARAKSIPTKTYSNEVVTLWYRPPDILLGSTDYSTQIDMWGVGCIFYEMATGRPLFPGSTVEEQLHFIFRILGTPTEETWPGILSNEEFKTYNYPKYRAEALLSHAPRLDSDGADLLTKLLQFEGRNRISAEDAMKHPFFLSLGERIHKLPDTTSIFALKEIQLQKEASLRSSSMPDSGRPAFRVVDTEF
T5 sequence (Q8ND76 whole entry partner): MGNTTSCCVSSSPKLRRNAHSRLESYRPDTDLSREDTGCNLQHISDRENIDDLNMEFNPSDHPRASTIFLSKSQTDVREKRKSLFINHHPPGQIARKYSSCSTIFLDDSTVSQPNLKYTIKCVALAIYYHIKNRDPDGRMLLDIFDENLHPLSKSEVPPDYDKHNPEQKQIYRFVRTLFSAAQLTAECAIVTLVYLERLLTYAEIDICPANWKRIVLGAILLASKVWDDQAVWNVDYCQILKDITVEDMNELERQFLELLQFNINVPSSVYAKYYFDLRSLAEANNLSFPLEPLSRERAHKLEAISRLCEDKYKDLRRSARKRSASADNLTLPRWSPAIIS

CDK3_CycC = biological target: T6, CDK3_CycC (Homo sapiens, UniProt Q00526); assay: Radiometric protein kinase assay (33PanQinase), CDK3_CycC; format: biochemical
T6 construct: purchased Reaction Biology
T6 sequence (Q00526 whole entry): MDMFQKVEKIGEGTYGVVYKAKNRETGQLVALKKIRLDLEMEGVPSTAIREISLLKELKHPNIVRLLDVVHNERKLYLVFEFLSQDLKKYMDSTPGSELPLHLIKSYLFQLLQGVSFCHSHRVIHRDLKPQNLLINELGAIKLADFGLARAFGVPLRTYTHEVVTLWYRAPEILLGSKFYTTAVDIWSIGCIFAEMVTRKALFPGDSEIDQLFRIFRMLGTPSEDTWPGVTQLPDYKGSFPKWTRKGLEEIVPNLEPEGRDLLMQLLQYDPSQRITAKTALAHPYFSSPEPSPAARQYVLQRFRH
T6 sequence (P24863 whole entry partner): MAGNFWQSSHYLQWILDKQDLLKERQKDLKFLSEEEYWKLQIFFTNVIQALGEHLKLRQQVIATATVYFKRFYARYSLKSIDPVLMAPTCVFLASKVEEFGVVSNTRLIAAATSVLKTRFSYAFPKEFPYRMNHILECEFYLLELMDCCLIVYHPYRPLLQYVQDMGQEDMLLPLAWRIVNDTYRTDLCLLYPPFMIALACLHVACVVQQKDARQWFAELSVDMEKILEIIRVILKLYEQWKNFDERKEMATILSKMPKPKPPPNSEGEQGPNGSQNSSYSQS

CDK18_CycY = CDK18_CycY (Homo sapiens, UniProt Q07002); assay: Radiometric protein kinase assay (33PanQinase), CDK18_CycY; format: biochemical
Sequence of CDK18_CycY (Q07002 whole entry): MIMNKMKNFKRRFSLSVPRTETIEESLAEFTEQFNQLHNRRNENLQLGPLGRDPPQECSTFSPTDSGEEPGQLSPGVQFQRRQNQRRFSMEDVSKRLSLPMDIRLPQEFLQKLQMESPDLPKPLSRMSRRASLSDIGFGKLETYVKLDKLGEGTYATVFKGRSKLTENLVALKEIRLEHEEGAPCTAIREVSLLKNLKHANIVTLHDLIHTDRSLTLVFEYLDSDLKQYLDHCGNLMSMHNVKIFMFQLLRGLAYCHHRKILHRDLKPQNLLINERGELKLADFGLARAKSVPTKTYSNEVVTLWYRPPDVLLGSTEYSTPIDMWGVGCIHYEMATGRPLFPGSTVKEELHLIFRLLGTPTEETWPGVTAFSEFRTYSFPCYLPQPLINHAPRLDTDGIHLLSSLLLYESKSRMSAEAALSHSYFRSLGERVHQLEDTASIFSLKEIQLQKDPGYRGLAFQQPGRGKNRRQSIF
Sequence of CDK18_CycY (Q8ND76 whole entry partner): as the sequence (Q8ND76 whole entry partner) above

CDK9_CycK = biological target: T7, CDK9_CycK (Homo sapiens, UniProt P50750); assay: Radiometric protein kinase assay (33PanQinase), CDK9_CycK; format: biochemical
T7 construct: purchased Reaction Biology

CDK8 = system: CDK8; set-up: method as in numbers not given; conditions: reporter displacement assay; previously characterized compounds, no method in this paper; ref numbers not given; read-out: IC50 for in vitro CDK8 binding; cited from earlier work
CDK3_CycE1 = biological target: T8, CDK3_CycE1 (Homo sapiens, UniProt Q00526); assay: Radiometric protein kinase assay (33PanQinase), CDK3_CycE1; format: biochemical; conditions: slope of the IC50 fit
T8 construct: purchased Reaction Biology

CDK13_CycK = biological target: T9, CDK13_CycK (Homo sapiens, UniProt Q14004); assay: Radiometric protein kinase assay (33PanQinase), CDK13_CycK; format: biochemical; conditions: slope of the IC50 fit
T9 construct: purchased Reaction Biology

CDK4_CycD3 = biological target: T10, CDK4_CycD3 (Homo sapiens, UniProt P11802); assay: Radiometric protein kinase assay (33PanQinase), CDK4_CycD3; format: biochemical
T10 construct: purchased Reaction Biology

CDK1_CycB1 = biological target: T11, CDK1_CycB1 (Homo sapiens, UniProt P06493); assay: Radiometric protein kinase assay (33PanQinase), CDK1_CycB1; format: biochemical
T11 construct: purchased Reaction Biology

CDK15_CycA2 = biological target: T12, CDK15_CycA2 (Homo sapiens, UniProt Q96Q40); assay: Radiometric protein kinase assay (33PanQinase), CDK15_CycA2; format: biochemical
T12 construct: purchased Reaction Biology

CDK20_CycH = CDK20_CycH (Homo sapiens, UniProt Q8IZL9); assay: Radiometric protein kinase assay (33PanQinase), CDK20_CycH; format: biochemical
Sequence of CDK20_CycH (Q8IZL9 whole entry): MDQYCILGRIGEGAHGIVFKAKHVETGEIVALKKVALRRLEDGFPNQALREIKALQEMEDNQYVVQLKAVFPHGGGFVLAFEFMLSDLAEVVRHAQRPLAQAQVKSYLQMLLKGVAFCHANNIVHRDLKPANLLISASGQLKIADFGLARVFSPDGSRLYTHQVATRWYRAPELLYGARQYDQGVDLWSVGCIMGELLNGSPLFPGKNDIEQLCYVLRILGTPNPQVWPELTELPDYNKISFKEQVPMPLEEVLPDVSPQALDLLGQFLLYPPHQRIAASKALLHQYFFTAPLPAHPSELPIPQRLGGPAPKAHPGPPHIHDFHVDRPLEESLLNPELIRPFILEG

CDK2_CycD1 = biological target: T13, CDK2_CycD1 (Homo sapiens, UniProt P24941); assay: Radiometric protein kinase assay (33PanQinase), CDK2_CycD1; format: biochemical
T13 construct: purchased Reaction Biology

CDK19_CycC = biological target: T14, CDK19_CycC (Homo sapiens, UniProt Q9BWU1); assay: Radiometric protein kinase assay (33PanQinase), CDK19_CycC; format: biochemical
T14 construct: purchased Reaction Biology
T14 sequence (Q9BWU1 whole entry): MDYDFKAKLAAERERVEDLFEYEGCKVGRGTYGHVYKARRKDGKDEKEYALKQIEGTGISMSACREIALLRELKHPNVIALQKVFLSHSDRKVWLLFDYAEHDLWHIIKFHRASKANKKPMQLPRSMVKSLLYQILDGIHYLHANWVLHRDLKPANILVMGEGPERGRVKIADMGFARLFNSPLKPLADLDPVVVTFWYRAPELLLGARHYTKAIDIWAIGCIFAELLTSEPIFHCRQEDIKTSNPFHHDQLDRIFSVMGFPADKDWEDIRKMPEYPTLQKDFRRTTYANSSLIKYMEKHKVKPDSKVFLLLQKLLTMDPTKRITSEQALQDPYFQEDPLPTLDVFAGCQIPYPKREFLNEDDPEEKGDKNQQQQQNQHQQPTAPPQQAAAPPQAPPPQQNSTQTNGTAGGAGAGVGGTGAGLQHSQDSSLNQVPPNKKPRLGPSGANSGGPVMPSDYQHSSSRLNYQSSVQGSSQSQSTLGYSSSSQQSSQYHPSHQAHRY
T14 sequence (P24863 whole entry partner): as the sequence (P24863 whole entry partner) above

CDK6_CycD2 = biological target: T15, CDK6_CycD2 (Homo sapiens, UniProt Q00534); assay: Radiometric protein kinase assay (33PanQinase), CDK6_CycD2; format: biochemical
T15 construct: purchased Reaction Biology

CDK11B 357-795_CycK = CDK11B 357-795_CycK (Homo sapiens, UniProt P21127); assay: Radiometric protein kinase assay (33PanQinase), CDK11B 357-795_CycK; format: biochemical
Sequence of CDK11B 357-795_CycK (P21127 357-795): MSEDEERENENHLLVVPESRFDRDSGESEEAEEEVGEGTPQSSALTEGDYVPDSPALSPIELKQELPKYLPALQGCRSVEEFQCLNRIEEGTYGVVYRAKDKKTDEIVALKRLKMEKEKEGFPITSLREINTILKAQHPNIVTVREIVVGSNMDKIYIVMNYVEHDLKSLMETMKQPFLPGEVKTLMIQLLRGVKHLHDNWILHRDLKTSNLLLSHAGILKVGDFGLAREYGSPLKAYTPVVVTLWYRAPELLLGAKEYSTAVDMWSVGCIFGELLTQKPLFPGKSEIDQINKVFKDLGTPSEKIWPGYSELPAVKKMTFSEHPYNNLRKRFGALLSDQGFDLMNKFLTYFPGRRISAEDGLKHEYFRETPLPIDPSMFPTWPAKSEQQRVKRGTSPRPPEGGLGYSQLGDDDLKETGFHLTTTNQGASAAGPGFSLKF

CDK9_CycT1 = biological target: T16, CDK9_CycT1 (Homo sapiens, UniProt P50750); assay: Radiometric protein kinase assay (33PanQinase), CDK9_CycT1; format: biochemical
T16 construct: purchased Reaction Biology

CDK20_CycT1 = CDK20_CycT1 (Homo sapiens, UniProt Q8IZL9); assay: Radiometric protein kinase assay (33PanQinase), CDK20_CycT1; format: biochemical
Sequence of CDK20_CycT1 (Q8IZL9 whole entry): as the sequence (Q8IZL9 whole entry) above

CDK14_CycY = CDK14_CycY (Homo sapiens, UniProt O94921); assay: Radiometric protein kinase assay (33PanQinase), CDK14_CycY; format: biochemical
CDK5_p35NCK = biological target: T17, CDK5_p35NCK (Homo sapiens, UniProt Q00535); assay: Radiometric protein kinase assay (33PanQinase), CDK5_p35NCK; format: biochemical
T17 construct: purchased Reaction Biology

CDK2_CycE1 = biological target: T18, CDK2_CycE1 (Homo sapiens, UniProt P24941); assay: Radiometric protein kinase assay (33PanQinase), CDK2_CycE1; format: biochemical
T18 construct: purchased Reaction Biology

CDK6_CycD3 = biological target: T19, CDK6_CycD3 (Homo sapiens, UniProt Q00534); assay: Radiometric protein kinase assay (33PanQinase), CDK6_CycD3; format: biochemical; conditions: slope of the IC50 fit
T19 construct: purchased Reaction Biology

CDK4_CycD2 = biological target: T20, CDK4_CycD2 (Homo sapiens, UniProt P11802); assay: Radiometric protein kinase assay (33PanQinase), CDK4_CycD2; format: biochemical
T20 construct: purchased Reaction Biology

CDK1_CycA2 = biological target: T21, CDK1_CycA2 (Homo sapiens, UniProt P06493); assay: Radiometric protein kinase assay (33PanQinase), CDK1_CycA2; format: biochemical
T21 construct: purchased Reaction Biology

CDK10_CycQ = CDK10_CycQ (Homo sapiens, UniProt Q15131); assay: Radiometric protein kinase assay (33PanQinase), CDK10_CycQ; format: biochemical
Sequence of CDK10_CycQ (Q15131 whole entry): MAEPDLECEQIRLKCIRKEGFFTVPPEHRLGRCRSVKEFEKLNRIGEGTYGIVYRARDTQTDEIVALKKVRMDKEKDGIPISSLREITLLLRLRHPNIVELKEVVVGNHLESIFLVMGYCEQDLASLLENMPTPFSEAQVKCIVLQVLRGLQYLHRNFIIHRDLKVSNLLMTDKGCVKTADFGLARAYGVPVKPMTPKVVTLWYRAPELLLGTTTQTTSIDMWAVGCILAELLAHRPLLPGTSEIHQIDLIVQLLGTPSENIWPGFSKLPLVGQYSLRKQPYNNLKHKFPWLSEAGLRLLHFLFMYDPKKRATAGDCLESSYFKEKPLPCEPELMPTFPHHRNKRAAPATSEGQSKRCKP
Sequence of CDK10_CycQ (Q8N1B3 whole entry partner): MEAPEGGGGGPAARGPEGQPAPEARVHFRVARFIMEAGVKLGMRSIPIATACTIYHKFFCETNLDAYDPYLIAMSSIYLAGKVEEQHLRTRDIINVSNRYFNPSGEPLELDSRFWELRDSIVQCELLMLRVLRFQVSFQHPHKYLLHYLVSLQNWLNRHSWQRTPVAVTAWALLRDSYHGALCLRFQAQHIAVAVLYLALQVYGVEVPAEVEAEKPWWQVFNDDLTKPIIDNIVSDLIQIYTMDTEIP

CDK4_CycD1 = biological target: T22, CDK4_CycD1 (Homo sapiens, UniProt P11802); assay: Radiometric protein kinase assay (33PanQinase), CDK4_CycD1; format: biochemical
T22 construct: purchased Reaction Biology

CDK2_CycA2 = biological target: T23, CDK2_CycA2 (Homo sapiens, UniProt P24941); assay: Radiometric protein kinase assay (33PanQinase), CDK2_CycA2; format: biochemical
T23 construct: purchased Reaction Biology

CDK7_CycH_MAT1 = biological target: T24, CDK7_CycH_MAT1 (Homo sapiens, UniProt P50613); assay: Radiometric protein kinase assay (33PanQinase), CDK7_CycH_MAT1; format: biochemical
T24 construct: purchased Reaction Biology
T24 sequence (P50613 whole entry): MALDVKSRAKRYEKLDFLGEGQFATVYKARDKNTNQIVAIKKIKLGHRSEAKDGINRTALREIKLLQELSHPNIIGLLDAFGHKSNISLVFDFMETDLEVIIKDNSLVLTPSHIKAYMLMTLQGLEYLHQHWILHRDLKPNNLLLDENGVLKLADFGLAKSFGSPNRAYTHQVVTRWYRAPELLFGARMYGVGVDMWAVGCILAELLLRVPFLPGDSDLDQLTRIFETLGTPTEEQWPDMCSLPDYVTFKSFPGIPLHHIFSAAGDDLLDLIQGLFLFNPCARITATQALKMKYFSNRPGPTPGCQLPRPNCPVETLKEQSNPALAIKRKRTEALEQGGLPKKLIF
T24 sequence (P51946 whole entry partner): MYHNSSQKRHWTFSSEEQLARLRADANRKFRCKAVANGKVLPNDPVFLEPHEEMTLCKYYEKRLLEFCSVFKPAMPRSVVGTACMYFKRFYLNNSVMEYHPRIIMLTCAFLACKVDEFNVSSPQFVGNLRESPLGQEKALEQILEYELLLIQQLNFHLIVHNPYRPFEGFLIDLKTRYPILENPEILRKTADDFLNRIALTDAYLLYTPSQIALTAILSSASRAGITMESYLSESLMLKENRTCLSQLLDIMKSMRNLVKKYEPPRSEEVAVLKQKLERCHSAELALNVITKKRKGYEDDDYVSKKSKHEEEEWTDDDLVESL
T24 sequence (P51948 whole entry partner): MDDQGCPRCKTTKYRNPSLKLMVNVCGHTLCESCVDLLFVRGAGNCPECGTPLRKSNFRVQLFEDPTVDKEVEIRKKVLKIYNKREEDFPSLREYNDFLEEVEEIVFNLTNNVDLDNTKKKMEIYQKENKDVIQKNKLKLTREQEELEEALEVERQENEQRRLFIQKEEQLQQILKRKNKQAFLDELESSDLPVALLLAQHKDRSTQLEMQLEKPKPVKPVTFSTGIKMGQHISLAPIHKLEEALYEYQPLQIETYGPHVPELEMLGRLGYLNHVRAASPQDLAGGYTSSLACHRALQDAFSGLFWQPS

CDK5_p25NCK = biological target: T25, CDK5_p25NCK (Homo sapiens, UniProt Q00535); assay: Radiometric protein kinase assay (33PanQinase), CDK5_p25NCK; format: biochemical
T25 construct: purchased Reaction Biology

CDK17_p35NCK = CDK17_p35NCK (Homo sapiens, UniProt Q00537); assay: Radiometric protein kinase assay (33PanQinase), CDK17_p35NCK; format: biochemical
[1] = highest assay concentration 1.00E-05 M
[2] = highest assay concentration 1.00E-05 M, read-out: IC50

## Cn1cc(-c2ccc(-c3cncc(Cl)c3N3CCC4(CCNC4=O)CC3)cc2)cn1 [CCT251545]
CDK6_CycD1; [1]
  IC50: > 10 µM
CDK6_CycD1; slope of the IC50 fit
  Hill Slope: -1.25
CDK1_CycE1; [2]
  IC50: > 10 µM
CDK1_CycE1; slope of the IC50 fit
  Hill Slope: -0.72
CDK8_CycC
  IC50: 0.0841 µM
CDK8_CycC; slope of the IC50 fit
  Hill Slope: -0.56
CDK12_CycK
  Hill Slope: -0.07
CDK16_CycY; [1]
  IC50: > 10 µM
CDK16_CycY; slope of the IC50 fit
  Hill Slope: -1.1
CDK3_CycC
  IC50: > 10 µM
CDK3_CycC; slope of the IC50 fit
  Hill Slope: -0.47
CDK18_CycY; [1]
  IC50: > 10 µM
CDK18_CycY; slope of the IC50 fit
  Hill Slope: -0.5
CDK9_CycK; [1]
  IC50: 3.81 µM
CDK9_CycK; slope of the IC50 fit
  Hill Slope: -0.78
CDK8
  IC50: 0.005 µM
CDK3_CycE1
  Hill Slope: -0.16
CDK13_CycK
  Hill Slope: 0.15
CDK4_CycD3; [1]
  IC50: > 10 µM
CDK4_CycD3; slope of the IC50 fit
  Hill Slope: -0.27
CDK1_CycB1; [1]
  IC50: > 10 µM
CDK1_CycB1; slope of the IC50 fit
  Hill Slope: -0.74
CDK15_CycA2; [1]
  IC50: > 10 µM
CDK15_CycA2; slope of the IC50 fit
  Hill Slope: -0.34
CDK20_CycH; [1]
  IC50: > 10 µM
CDK20_CycH; slope of the IC50 fit
  Hill Slope: -0.44
CDK2_CycD1; [2]
  IC50: > 10 µM
CDK2_CycD1; slope of the IC50 fit
  Hill Slope: -0.29
CDK19_CycC
  IC50: 0.277 µM
CDK19_CycC; slope of the IC50 fit
  Hill Slope: -0.53
CDK6_CycD2; [1]
  IC50: > 10 µM
CDK6_CycD2; slope of the IC50 fit
  Hill Slope: -0.64
CDK11B 357-795_CycK; [1]
  IC50: > 10 µM
CDK11B 357-795_CycK; slope of the IC50 fit
  Hill Slope: -8.69
CDK9_CycT1; [1]
  IC50: 6.07 µM
CDK9_CycT1; slope of the IC50 fit
  Hill Slope: -0.94
CDK20_CycT1; [1]
  IC50: > 10 µM
CDK20_CycT1; slope of the IC50 fit
  Hill Slope: -0.39
CDK14_CycY; [1]
  IC50: > 10 µM
CDK14_CycY; slope of the IC50 fit
  Hill Slope: -0.82
CDK5_p35NCK; [1]
  IC50: > 10 µM
CDK5_p35NCK; slope of the IC50 fit
  Hill Slope: -1.62
CDK2_CycE1; [2]
  IC50: > 10 µM
CDK2_CycE1; slope of the IC50 fit
  Hill Slope: -0.5
CDK6_CycD3
  Hill Slope: -0.2
CDK4_CycD2; [1]
  IC50: > 10 µM
CDK4_CycD2; slope of the IC50 fit
  Hill Slope: -0.3
CDK1_CycA2; [2]
  IC50: > 10 µM
CDK1_CycA2; slope of the IC50 fit
  Hill Slope: -0.78
CDK10_CycQ; [1]
  IC50: > 10 µM
CDK10_CycQ; slope of the IC50 fit
  Hill Slope: -0.51
CDK4_CycD1; [1]
  IC50: > 10 µM
CDK4_CycD1; slope of the IC50 fit
  Hill Slope: -0.31
CDK2_CycA2; [2]
  IC50: > 10 µM
CDK2_CycA2; slope of the IC50 fit
  Hill Slope: -0.46
CDK7_CycH_MAT1; [1]
  IC50: > 10 µM
CDK7_CycH_MAT1; slope of the IC50 fit
  Hill Slope: -0.59
CDK5_p25NCK; [1]
  IC50: > 10 µM
CDK5_p25NCK; slope of the IC50 fit
  Hill Slope: -0.59
CDK17_p35NCK; [1]
  IC50: > 10 µM
CDK17_p35NCK; slope of the IC50 fit
  Hill Slope: -0.17
